According to patent publication US12295936B2, “Immunomodulating urea azalides” (Zoetis Services LLC, priority 2020, dated 2025):

Experiments:
[1] = tested on: IL-1β; assay: LPS-stimulated whole bovine blood assay, MSD cytokine detection; assay type: cell-based; conditions: overstimulation of IL-1β, LPS-stimulated bovine whole blood
[2] = tested on: TNF-α; assay: as above; assay type: cell-based; conditions: Bos taurus, LPS-stimulated bovine whole blood; read-out: TNF-α (IC50 μM)
[3] = tested on: IL-6; assay: as above; assay type: cell-based; conditions: Bos taurus, LPS-stimulated bovine whole blood; read-out: IL-6 (IC50 μM)
Source text: In order to correlate RNA sequencing data to cytokine changes the whole blood assay was utilized. […] The enhancement result represents an overall stimulation of cytokine levels due to cellular stress or potential toxicity with increasing concentrations of the compound, representing a typical bell shape response curve for immunomodulatory activity.

[4] = tested on: BRD pathogens, M. haemolytica and P. multocida; assay: MIC screening panel of BRD pathogens (antibacterial / non-antibacterial); conditions: read-out: antibacterial / non-antibacterial (MIC for the BRD pathogens)

| SMILES | IL-1β OS of LPS [1] [µM] | IC50 [2] [µM] | IC50 [3] [µM] | MIC [4] [µg/mL] |
| --- | --- | --- | --- | --- |
| CC[C@H]1OC(=O)[C@H](C)[C@@H](O[C@H]2C[C@@](C)(OC)[C@](O)(CNCCCn3ccnc3)[C@H](C)O2)[C@H](C)[C@@H](O[C@@H]2O[C@H](C)C[C@H](N(C)C(=O)N(C)c3ccccc3)[C@H]2O)[C@](C)(O)C[C@@H](C)CN[C@H](C)[C@@H](O)[C@]1(C)O [Example H-25, 1-((2S,3R,4S,6R)-2-(((2R,3S,4R,5R,8R,10R,11R,12S,13S,14R)-13-(((2R,4R,5S,6S)-5-(((3-(1H-imidazol-1-yl)propyl)amino)methyl)-5-hydroxy-4-methoxy-4,6-dimethyltetrahydro-2H-pyran-2-yl)oxy)-2-ethyl-3,4,10-trihydroxy-3,5,8,10,12,14-hexamethyl-15-oxo-1-oxa-6-azacyclopentadecan-11-yl)oxy)-3-hydroxy-6-methyltetrahydro-2H-pyran-4-yl)-1,3-dimethyl-3-phenylurea] | 16 | 19 | 22 | > 64 |
| CCCNC[C@]1(O)[C@H](C)O[C@@H](O[C@H]2[C@H](C)[C@@H](O[C@@H]3O[C@H](C)C[C@H](N(Cc4nccs4)C(=O)N(C)c4ccccc4)[C@H]3O)[C@](C)(O)C[C@@H](C)CN[C@H](C)[C@@H](O)[C@](C)(O)[C@@H](CC)OC(=O)[C@@H]2C)C[C@@]1(C)OC [Example H-64, 1-((2S,3R,4S,6R)-2-(((2R,3S,4R,5R,8R,10R,11R,12S,13S,14R)-2-ethyl-3,4,10-trihydroxy-13-(((2R,4R,5S,6S)-5-hydroxy-4-methoxy-4,6-dimethyl-5-((propylamino)methyl)tetrahydro-2H-pyran-2-yl)oxy)-3,5,8,10,12,14-hexamethyl-15-oxo-1-oxa-6-azacyclopentadecan-11-yl)oxy)-3-hydroxy-6-methyltetrahydro-2H-pyran-4-yl)-3-methyl-3-phenyl-1-(thiazol-2-ylmethyl)urea] | 16 | 28 | 28 | > 64 |
| CCCNC[C@]1(O)[C@H](C)O[C@@H](O[C@H]2[C@H](C)[C@@H](O[C@@H]3O[C@H](C)C[C@H](N(Cc4ccccc4)C(=O)N(C)c4ccccc4)[C@H]3O)[C@](C)(O)C[C@@H](C)CN[C@H](C)[C@@H](O)[C@](C)(O)[C@@H](CC)OC(=O)[C@@H]2C)C[C@@]1(C)OC [Example H-65, 1-benzyl-1-((2S,3R,4S,6R)-2-(((2R,3S,4R,5R,8R,10R,11R,12S,13S,14R)-2-ethyl-3,4,10-trihydroxy-13-(((2R,4R,5S,6S)-5-hydroxy-4-methoxy-4,6-dimethyl-5-((propylamino)methyl)tetrahydro-2H-pyran-2-yl)oxy)-3,5,8,10,12,14-hexamethyl-15-oxo-1-oxa-6-azacyclopentadecan-11-yl)oxy)-3-hydroxy-6-methyltetrahydro-2H-pyran-4-yl)-3-methyl-3-phenylurea] | 2 | 9 | 6 | > 64 |
| CC[C@H]1OC(=O)[C@H](C)[C@@H](O[C@H]2C[C@@](C)(OC)[C@](O)(CN(C)C3CCC3)[C@H](C)O2)[C@H](C)[C@@H](O[C@@H]2O[C@H](C)C[C@H](N(C)C(=O)N(C)c3ccccc3)[C@H]2O)[C@](C)(O)C[C@@H](C)CN[C@H](C)[C@@H](O)[C@]1(C)O [Example H-37, 1-((2S,3R,4S,6R)-2-(((2R,3S,4R,5R,8R,10R,11R,12S,13S,14R)-13-(((2R,4R,5S,6S)-5-((cyclobutyl(methyl)amino)methyl)-5-hydroxy-4-methoxy-4,6-dimethyltetrahydro-2H-pyran-2-yl)oxy)-2-ethyl-3,4,10-trihydroxy-3,5,8,10,12,14-hexamethyl-15-oxo-1-oxa-6-azacyclopentadecan-11-yl)oxy)-3-hydroxy-6-methyltetrahydro-2H-pyran-4-yl)-1,3-dimethyl-3-phenylurea] | 40 | 8 | 12 | > 64 |
| CC[C@H]1OC(=O)[C@H](C)[C@@H](O[C@H]2C[C@@](C)(OC)[C@](O)(CNc3ccccc3)[C@H](C)O2)[C@H](C)[C@@H](O[C@@H]2O[C@H](C)C[C@H](N(C)C(=O)N(C)c3ccccc3)[C@H]2O)[C@](C)(O)C[C@@H](C)CN[C@H](C)[C@@H](O)[C@]1(C)O [Example H-32, 1-((2S,3R,4S,6R)-2-(((2R,3S,4R,5R,8R,10R,11R,12S,13S,14R)-2-ethyl-3,4,10-trihydroxy-13-(((2R,4R,5S,6S)-5-hydroxy-4-methoxy-4,6-dimethyl-5-((phenylamino)methyl)tetrahydro-2H-pyran-2-yl)oxy)-3,5,8,10,12,14-hexamethyl-15-oxo-1-oxa-6-azacyclopentadecan-11-yl)oxy)-3-hydroxy-6-methyltetrahydro-2H-pyran-4-yl)-1,3-dimethyl-3-phenylurea] | 44 | 11 | 8 | > 64 |
| CC[C@H]1OC(=O)[C@H](C)[C@@H](O[C@H]2C[C@@](C)(OC)[C@](O)(CNCCC(C)C)[C@H](C)O2)[C@H](C)[C@@H](O[C@@H]2O[C@H](C)C[C@H](N(C)C(=O)N(C)c3ccccc3)[C@H]2O)[C@](C)(O)C[C@@H](C)CN[C@H](C)[C@@H](O)[C@]1(C)O [Example H-29, 1-((2S,3R,4S,6R)-2-(((2R,3S,4R,5R,8R,10R,11R,12S,13S,14R)-2-ethyl-3,4,10-trihydroxy-13-(((2R,4R,5S,6S)-5-hydroxy-5-((isopentylamino)methyl)-4-methoxy-4,6-dimethyltetrahydro-2H-pyran-2-yl)oxy)-3,5,8,10,12,14-hexamethyl-15-oxo-1-oxa-6-azacyclopentadecan-11-yl)oxy)-3-hydroxy-6-methyltetrahydro-2H-pyran-4-yl)-1,3-dimethyl-3-phenylurea] | 3 | 50 | 50 | > 64 |
| CC[C@H]1OC(=O)[C@H](C)[C@@H](O[C@H]2C[C@@](C)(OC)[C@](O)(CN=[N+]=[N-])[C@H](C)O2)[C@H](C)[C@@H](O[C@@H]2O[C@H](C)C[C@H](N(C)C(=O)N(C)c3ccccc3)[C@H]2O)[C@](C)(O)C[C@@H](C)CN[C@H](C)[C@@H](O)[C@]1(C)O [Example F-2, 1-((2S,3R,4S,6R)-2-(((2R,3S,4R,5R,8R,10R,11R,12S,13S,14R)-13-(((2R,4R,5S,6S)-5-(azidomethyl)-5-hydroxy-4-methoxy-4,6-dimethyltetrahydro-2H-pyran-2-yl)oxy)-2-ethyl-3,4,10-trihydroxy-3,5,8,10,12,14-hexamethyl-15-oxo-1-oxa-6-azacyclopentadecan-11-yl)oxy)-3-hydroxy-6-methyltetrahydro-2H-pyran-4-yl)-1,3-dimethyl-3-phenylurea] | 40 | 11 | 30 | > 64 |
| CCCNC[C@]1(O)[C@H](C)O[C@@H](O[C@H]2[C@H](C)[C@@H](O[C@@H]3O[C@H](C)C[C@H](N(C)C(=O)N(C)c4ncc(Cl)cn4)[C@H]3O)[C@](C)(O)C[C@@H](C)CN[C@H](C)[C@@H](O)[C@](C)(O)[C@@H](CC)OC(=O)[C@@H]2C)C[C@@]1(C)OC [Example H-51, 1-(5-chloropyrimidin-2-yl)-3-((2S,3R,4S,6R)-2-(((2R,3S,4R,5R,8R,10R,11R,12S,13S,14R)-2-ethyl-3,4,10-trihydroxy-13-(((2R,4R,5S,6S)-5-hydroxy-4-methoxy-4,6-dimethyl-5-((propylamino)methyl)tetrahydro-2H-pyran-2-yl)oxy)-3,5,8,10,12,14-hexamethyl-15-oxo-1-oxa-6-azacyclopentadecan-11-yl)oxy)-3-hydroxy-6-methyltetrahydro-2H-pyran-4-yl)-1,3-dimethylurea] | 40 | 26 | 52 | > 64 |
| CCCNC[C@]1(O)[C@H](C)O[C@@H](O[C@H]2[C@H](C)[C@@H](O[C@@H]3O[C@H](C)C[C@H](N(C)C(=O)N(C)c4ccc(C(F)(F)F)cc4)[C@H]3O)[C@](C)(O)C[C@@H](C)CN(CCC)[C@H](C)[C@@H](O)[C@](C)(O)[C@@H](CC)OC(=O)[C@@H]2C)C[C@@]1(C)OC [Example H-103, 1-((2S,3R,4S,6R)-2-(((2R,3S,4R,5R,8R,10R,11R,12S,13S,14R)-2-ethyl-3,4,10-trihydroxy-13-(((2R,4R,5S,6S)-5-hydroxy-4-methoxy-4,6-dimethyl-5-((propylamino)methyl)tetrahydro-2H-pyran-2-yl)oxy)-3,5,8,10,12,14-hexamethyl-15-oxo-6-propyl-1-oxa-6-azacyclopentadecan-11-yl)oxy)-3-hydroxy-6-methyltetrahydro-2H-pyran-4-yl)-1,3-dimethyl-3-(4-(trifluoromethyl)phenyl)urea] | 3 | 5 | 4 | > 64 |
| CC[C@H]1OC(=O)[C@H](C)[C@@H](O[C@H]2C[C@@](C)(OC)[C@](O)(CNC3CC3)[C@H](C)O2)[C@H](C)[C@@H](O[C@@H]2O[C@H](C)C[C@H](N(C)C(=O)N(C)c3ccccc3)[C@H]2O)[C@](C)(O)C[C@@H](C)CN[C@H](C)[C@@H](O)[C@]1(C)O [Example H-27, 1-((2S,3R,4S,6R)-2-(((2R,3S,4R,5R,8R,10R,11R,12S,13S,14R)-13-(((2R,4R,5S,6S)-5-((cyclopropylamino)methyl)-5-hydroxy-4-methoxy-4,6-dimethyltetrahydro-2H-pyran-2-yl)oxy)-2-ethyl-3,4,10-trihydroxy-3,5,8,10,12,14-hexamethyl-15-oxo-1-oxa-6-azacyclopentadecan-11-yl)oxy)-3-hydroxy-6-methyltetrahydro-2H-pyran-4-yl)-1,3-dimethyl-3-phenylurea] | 16 | 8 | 17 | > 64 |
